Experiment [1] concerns Mycobacterium tuberculosis. Put plainly: Antimycobacterial activity of compound against Mycobacterium tuberculosis H37Rv at 6.25 ug/mL. It is filed as functional.
The subject of experiment [2] is Mycobacterium tuberculosis. Put plainly: Antimycobacterial activity of compound against Mycobacterium tuberculosis H37Rv at 1.56 ug/mL. Type of experiment: functional.
The test system of experiment [3] is Mycobacterium tuberculosis. Briefly: Antimycobacterial activity of compound against Mycobacterium tuberculosis H37Rv at 5 ug/mL. It is filed as functional.
The subject of experiment [4] is Mycobacterium tuberculosis. Briefly: Antimycobacterial activity of compound against Mycobacterium tuberculosis H37Rv at 8 ug/mL. It is filed as functional.
The test system of experiment [5] is Mycobacterium tuberculosis. Put plainly: Antimycobacterial activity of compound against Mycobacterium tuberculosis H37Rv at 2 ug/mL. Type of experiment: functional.
Experiment [6] deals with Mycobacterium tuberculosis. Briefly: Antimycobacterial activity of compound against Mycobacterium tuberculosis H37Rv at 1.88 ug/mL. Type of experiment: functional.
Experiment [7] concerns Mycobacterium tuberculosis. Briefly: Antimycobacterial activity of compound against Mycobacterium tuberculosis H37Rv at 2.50 ug/mL.
Experiment [8] concerns Mycobacterium tuberculosis. Briefly: Antimycobacterial activity of compound against Mycobacterium tuberculosis H37Rv at 0.05 ug/mL. Type of experiment: functional.
Experiment [9] has as its system Mycobacterium tuberculosis. Put plainly: Antimycobacterial activity of compound against Mycobacterium tuberculosis H37Rv at 0.125 ug/mL. It is filed as functional.

Regarding `CC(=O)Nc1ccc(NC(=O)N/N=C/c2ccccc2[N+](=O)[O-])cc1`, in experiment [1], the inhibition at 6.25 µg/mL was 90%. As to `Cc1c(Cl)cccc1NC(=O)N/N=C/c1ccccc1O`, in [1], the inhibition at 6.25 µg/mL was 0%. Same read-out and setting: under `CC(=O)Nc1ccc(NC(=O)N/N=C/c2ccc([N+](=O)[O-])cc2)cc1` stands 95%; under `Cc1c(Cl)cccc1NC(=O)N/N=C/c1ccccc1[N+](=O)[O-]`, 10%.

`CC(=O)Nc1ccc(NC(=O)N/N=C/c2ccccc2O)cc1` yielded an inhibition at 6.25 µg/mL in experiment [1] of 5%. The same measure, in the same setting: to `CC(=O)Nc1ccc(NC(=O)N/N=C/c2ccc(N(C)C)cc2)cc1` belongs 2%. On the same count and under the same terms, under `Cc1c(Cl)cccc1NC(=O)N/N=C/c1ccc(N(C)C)cc1` stands 0%; under `Cc1c(Cl)cccc1NC(=O)N/N=C/c1cccc([N+](=O)[O-])c1`, 58%.

In experiment [2], `CC(=O)Nc1ccc(NC(=O)N/N=C/c2cccc([N+](=O)[O-])c2)cc1` registered an inhibition at 1.56 µg/mL of 100%. Turning to `Cc1c(Cl)cccc1NC(=O)N/N=C/c1ccc([N+](=O)[O-])cc1`, the inhibition at 6.25 µg/mL in [1] was 24%. In the case of `NC[C@H]1O[C@H](O[C@H]2[C@H](O)[C@@H](O[C@H]3O[C@H](CO)[C@@H](O)[C@H](N)C3O)[C@H](N)C[C@@H]2N)[C@H](O)[C@@H](O)[C@@H]1O` (single isomer, unassigned) [KANAMYCIN], 5 µg/mL produced 90% inhibition in experiment [3]. In experiment [4], `Nc1ccc(C(=O)O)c(O)c1` [AMINOSALICYLIC ACID] returned an inhibition at 8 µg/mL of 92%. As to `O=C(O)c1cn(C2CC2)c2cc(N3CCNCC3)c(F)cc2c1=O` [CIPROFLOXACIN], the inhibition at 2 µg/mL in [5] came out at 95%. `CC[C@@H](CO)NCCN[C@@H](CC)CO` [ETHAMBUTOL] gave an inhibition at 1.88 µg/mL in experiment [6] of 90%. For the compound `CCc1cc(C(N)=S)ccn1` [ETHIONAMIDE], at 2.5 µg/mL the inhibition in experiment [7] was 90%. As for `NNC(=O)c1ccncc1` [ISONIAZID], testing at 0.05 µg/mL in experiment [8] gave an inhibition of 95%. Regarding `CO[C@H]1/C=C/O[C@@]2(C)Oc3c(C)c(O)c4c(O)c(c(/C=N/N5CCN(C)CC5)c(O)c4c3C2=O)NC(=O)/C(C)=C\C=C\[C@H](C)[C@H](O)[C@@H](C)[C@@H](O)[C@@H](C)[C@H](OC(C)=O)[C@@H]1C` [RIFAMPIN], the inhibition at 0.125 µg/mL in [9] stood at 95%.

For orientation: inhibition means how much of the control response was suppressed.

Source of the values: ChEMBL document CHEMBL1137114, “Antituberculous activity of some aryl semicarbazone derivatives” (2004).
